These results are taken from patent publication US8574563B2 (Bristol-Myers Squibb Company, priority 2006, dated 2013).

In this assay the test system is HCV 1b-377-neo replicon cells. Put plainly: HCV replicon assay, HCV 1b-377-neo replicon cells (1b FRET). Type of assay: cell-based, Hepatitis C virus genotype 1b. The conditions noted are these: Hepatitis C virus, HCV 1b-377-neo replicon cells; HCV 1b genotype; read-out: EC50 range against HCV 1b (Table 2, Range). Summed up: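 Compounds were tested in genotype 1b subgenomic replicon cells carrying a neomycin marker, alongside a matched replicon line with an NS5A Y2065H substitution that confers resistance to a reference NS5A inhibitor.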

As a reminder, the EC50 is the concentration that produces a half-maximal response. Turning to `COC(=O)N[C@@H](C(=O)N1CCC[C@H]1c1ncc(-c2ccc(-c3ccc(-c4cnc([C@@H]5CCCN5C(=O)[C@@H](c5ccccc5)N5CCC(C)(O)CC5)[nH]4)cc3)cc2)[nH]1)c1ccccc1Cl` [Example 107-42, methyl ((1R)-1-(2-chlorophenyl)-2-((2S)-2-(5-(4′-(2-((2S)-1-((2R)-2-(4-hydroxy-4-methyl-1-piperidinyl)-2-phenylacetyl)-2-pyrrolidinyl)-1H-imidazol-5-yl)-4-biphenylyl)-1H-imidazol-2-yl)-1-pyrrolidinyl)-2-oxoethyl) carbamate], the EC50 fell in the range of 0.001 to 0.999 nM.

For `COC(=O)N[C@@H](C(=O)N1CCC[C@H]1c1ncc(-c2ccc(-c3ccc(-c4cnc([C@@H]5CCCN5C(=O)[C@H](OC)c5ccccc5)[nH]4)cc3)cc2)[nH]1)c1ccccc1Cl` [Example 107-43, methyl ((1R)-1-(2-chlorophenyl)-2-((2S)-2-(5-(4′-(2-((2S)-1-((2R)-2-methoxy-2-phenylacetyl)-2-pyrrolidinyl)-1H-imidazol-5-yl)-4-biphenylyl)-1H-imidazol-2-yl)-1-pyrrolidinyl)-2-oxoethyl) carbamate], the EC50 fell in the range of 0.001 to 0.999 nM.

Turning to `COC(=O)N[C@@H](C(=O)N1CCC[C@H]1c1ncc(-c2ccc(-c3ccc(-c4cnc([C@@H]5CCCN5C(=O)[C@@H](c5ccccc5Cl)N(C)C)[nH]4)cc3)cc2)[nH]1)c1ccccc1Cl` [Example 107-44, methyl ((1R)-1-(2-chlorophenyl)-2-((2S)-2-(5-(4′-(2-((2S)-1-((2R)-2-(2-chloro-phenyl)-2-(dimethylamino)acetyl)-2-pyrrolidinyl)-1H-imidazol-5-yl)-4-biphenylyl)-1H-imidazol-2-yl)-1-pyrrolidinyl)-2-oxoethyl) carbamate], the EC50 lay in the range of 0.001 to 0.999 nM. Under `CCNC(=O)N1CCC[C@H]1c1ncc(-c2ccc(-c3ccc(-c4cnc([C@@H]5CCCN5C(=O)[C@H](NC(=O)OC)c5ccccc5)[nH]4)cc3)cc2)[nH]1` [Example 108, methyl ((1R)-2-((2S)-2-(5-(4′-(2-((2S)-1-(ethylcarbamoyl)-2-pyrrolidinyl)-1H-imidazol-5-yl)-4-biphenylyl)-1H-imidazol-2-yl)-1-pyrrolidinyl)-2-oxo-1-phenylethyl)carbamate] stands 0.001 to 0.999 nM; under `O=C(OCc1ccccc1)N1CCC[C@H]1c1ncc(-c2ccc(-c3ccc(-c4cnc([C@@H]5CCCN5C(=O)OCc5ccccc5)[nH]4)cc3)cc2)[nH]1` [Example 109, dibenzyl (2S,2′S)-2,2′-(4,4′-biphenyldiylbis(1H-imidazole-5,2-diyl))di(1-pyrrolidinecarboxylate)], 1 to 99 nM; under `O=C(N[C@@H](C(=O)N1CCC[C@H]1c1ncc(-c2ccc(-c3ccc(-c4cnc([C@@H]5CCCN5C(=O)[C@@H]5CCCO5)[nH]4)cc3)cc2)[nH]1)c1ccccc1)[C@H]1CCCO1` [Example 110, (2R)—N-((1R)-2-oxo-1-phenyl-2-((2S)-2-(5-(4′-(2-((2S)-1-((2S)-tetrahydro-2-furanylcarbonyl)-2-pyrrolidinyl)-1H-imidazol-5-yl)-4-biphenylyl)-1H-imidazol-2-yl)-1-pyrrolidinyl)ethyl)tetrahydro-2-furancarboxamide], 0.001 to 0.999 nM. Under `O=C(N[C@@H](C(=O)N1CCC[C@H]1c1ncc(-c2ccc(-c3ccc(-c4cnc([C@@H]5CCCN5C(=O)[C@@H]5CCCO5)[nH]4)cc3)cc2)[nH]1)c1ccccc1)N1CCOCC1` [Example 111, N-((1R)-2-oxo-1-phenyl-2-((2S)-2-(5-(4′-(2-((2S)-1-((2S)-tetrahydro-2-furanylcarbonyl)-2-pyrrolidinyl)-1H-imidazol-5-yl)-4-biphenylyl)-1H-imidazol-2-yl)-1-pyrrolidinyl)ethyl)-4-morpholinecarboxamide] stands 0.001 to 0.999 nM; under `O=C(N[C@@H](C(=O)N1CCC[C@H]1c1ncc(-c2ccc(-c3ccc(-c4cnc([C@@H]5CCCN5C(=O)[C@@H]5CCCO5)[nH]4)cc3)cc2)[nH]1)c1ccccc1)[C@@H]1CCCO1` [Example 112, (2S)-N-((1R)-2-oxo-1-phenyl-2-((2S)-2-(5-(4′-(2-((2S)-1((2S)-tetrahydro-2-furanylcarbonyl)-2-pyrrolidinyl)-1H-imidazol-5-yl)-4-biphenylyl)-1H-imidazol-2-yl)-1-pyrrolidinyl)ethyl) tetrahydro-2-furancarboxamide], 0.001 to 0.999 nM. With `CN1CCC[C@H]1C(=O)N[C@@H](C(=O)N1CCC[C@H]1c1ncc(-c2ccc(-c3ccc(-c4cnc([C@@H]5CCCN5C(=O)[C@@H]5CCCO5)[nH]4)cc3)cc2)[nH]1)c1ccccc1` [Example 113, 1-methyl-N-((1R)-2-oxo-1-phenyl-2-((2S)-2-(5-(4′-(2-((2S)-1-((2S)-tetrahydro-2-furanylcarbonyl)-2-pyrrolidinyl)-1H-imidazol-5-yl)-4-biphenylyl)-1H-imidazol-2-yl)-1-pyrrolidinyl)ethyl)-L-prolinamide], the EC50 fell in the range of 0.001 to 0.999 nM.

Consider `CN1CCC(C(=O)N[C@@H](C(=O)N2CCC[C@H]2c2ncc(-c3ccc(-c4ccc(-c5cnc([C@@H]6CCCN6C(=O)[C@@H]6CCCO6)[nH]5)cc4)cc3)[nH]2)c2ccccc2)CC1` [Example 114, 1-methyl-N-((1R)-2-oxo-1-phenyl-2-((2S)-2-(5-(4′-(2-((2S)-1-((2S)-tetrahydro-2-furanylcarbonyl)-2-pyrrolidinyl)-1H-imidazol-5-yl)-4-biphenylyl)-1H-imidazol-2-yl)-1-pyrrolidinyl)ethyl)-4-piperidinecarboxamide], for which the EC50 was 0.001 to 0.999 nM. `O=C(N[C@@H](C(=O)N1CCC[C@H]1c1ncc(-c2ccc(-c3ccc(-c4cnc([C@@H]5CCCN5C(=O)[C@@H]5CCCO5)[nH]4)cc3)cc2)[nH]1)c1ccccc1)C1CCOCC1` [Example 115, N-((1R)-2-oxo-1-phenyl-2-((2S)-2-(5-(4′-(2-((2S)-1-((2S)-tetrahydro-2-furanylcarbonyl)-2-pyrrolidinyl)-1H-imidazol-5-yl)-4-biphenylyl)-1H-imidazol-2-yl)-1-pyrrolidinyl)ethyl) tetrahydro-2H-pyran-4-carboxamide]: the EC50 was 0.001 to 0.999 nM.

With `CN1C[C@H](F)C[C@H]1C(=O)N[C@@H](C(=O)N1CCC[C@H]1c1ncc(-c2ccc(-c3ccc(-c4cnc([C@@H]5CCCN5C(=O)[C@@H]5CCCO5)[nH]4)cc3)cc2)[nH]1)c1ccccc1` [Example 116, (4R)-4-fluoro-1-methyl-N-((1R)-2-oxo-1-phenyl-2-((2S)-2-(5-(4′-(2-((2S)-1-((2S)-tetrahydro-2-furanylcarbonyl)-2-pyrrolidinyl)-1H-imidazol-5-yl)-4-biphenylyl)-1H-imidazol-2-yl)-1-pyrrolidinyl)ethyl)-L-prolinamide], the EC50 fell in the range of 0.001 to 0.999 nM. Consider `CN1CCN(C(=O)N[C@@H](C(=O)N2CCC[C@H]2c2ncc(-c3ccc(-c4ccc(-c5cnc([C@@H]6CCCN6C(=O)[C@@H]6CCCO6)[nH]5)cc4)cc3)[nH]2)c2ccccc2)CC1` [Example 117, 4-methyl-N-((1R)-2-oxo-1-phenyl-2-((2S)-2-(5-(4′-(2-((2S)-1-((2S)-tetrahydro-2-furanylcarbonyl)-2-pyrrolidinyl)-1H-imidazol-5-yl)-4-biphenylyl)-1H-imidazol-2-yl)-1-pyrrolidinyl)ethyl)-1-piperazinecarboxamide], for which the EC50 fell in the range of 0.001 to 0.999 nM. Under `CC(=O)N[C@@H](C(=O)N1CCC[C@H]1c1ncc(-c2ccc(-c3ccc(-c4cnc([C@@H]5CCCN5C(=O)[C@H]5CCCO5)[nH]4)cc3)cc2)[nH]1)c1ccccc1` [Example 118, N-((1R)-2-oxo-1-phenyl-2-((2S)-2-(5-(4′-(2-((2S)-1-((2R)-tetrahydro-2-furanylcarbonyl)-2-pyrrolidinyl)-1H-imidazol-5-yl)-4-biphenylyl)-1H-imidazol-2-yl)-1-pyrrolidinyl)ethyl) acetamide] stands 0.001 to 0.999 nM; under `O=C(N[C@@H](C(=O)N1CCC[C@H]1c1ncc(-c2ccc(-c3ccc(-c4cnc([C@@H]5CCCN5C(=O)[C@H]5CCCO5)[nH]4)cc3)cc2)[nH]1)c1ccccc1)[C@H]1CCCO1` [Example 119, (2R)-N-((1R)-2-oxo-1-phenyl-2-((2S)-2-(5-(4′-(2-((2S)-1-((2R)-tetrahydro-2-furanylcarbonyl)-2-pyrrolidinyl)-1H-imidazol-5-yl)-4-biphenylyl)-1H-imidazol-2-yl)-1-pyrrolidinyl)ethyl)tetrahydro-2-furancarboxamide], 0.001 to 0.999 nM; under `O=C(N[C@@H](C(=O)N1CCC[C@H]1c1ncc(-c2ccc(-c3ccc(-c4cnc([C@@H]5CCCN5C(=O)[C@H]5CCCO5)[nH]4)cc3)cc2)[nH]1)c1ccccc1)N1CCOCC1` [Example 120, N-((1R)-2-oxo-1-phenyl-2-((2S)-2-(5-(4′-(2-((2S)-1-((2R)-tetrahydro-2-furanylcarbonyl)-2-pyrrolidinyl)-1H-imidazol-5-yl)-4-biphenylyl)-1H-imidazol-2-yl)-1-pyrrolidinyl)ethyl)-4-morpholinecarboxamide], 0.001 to 0.999 nM. Under `Cn1cncc1C(=O)N[C@@H](C(=O)N1CCC[C@H]1c1ncc(-c2ccc(-c3ccc(-c4c[nH]c([C@@H]5CCCN5C(=O)[C@H]5CCCO5)n4)cc3)cc2)[nH]1)c1ccccc1` [Example 120-5, 1-methyl-N-((1R)-2-oxo-1-phenyl-2-((2S)-2-(5-(4′-(2-((2S)-1-((2R)-tetrahydro-2-furanylcarbonyl)-2-pyrrolidinyl)-1H-imidazol-4-yl)-4-biphenylyl)-1H-imidazol-2-yl)-1-pyrrolidinyl)ethyl)-1H-imidazole-5-carboxamide] stands 1 to 99 nM. As for `CN1CCC[C@H]1C(=O)N[C@@H](C(=O)N1CCC[C@H]1c1ncc(-c2ccc(-c3ccc(-c4c[nH]c([C@@H]5CCCN5C(=O)[C@H]5CCCO5)n4)cc3)cc2)[nH]1)c1ccccc1` [Example 120-6, 1-methyl-N-((1R)-2-oxo-1-phenyl-2-((2S)-2-(5-(4′-(2-((2S)-1-((2R)-tetrahydro-2-furanylcarbonyl)-2-pyrrolidinyl)-1H-imidazol-4-yl)-4-biphenylyl)-1H-imidazol-2-yl)-1-pyrrolidinyl)ethyl)-L-prolinamide], the EC50 is 1 to 99 nM.
